Results published in patent US20220220152A1, “BIVALENT ANTAGONISTS OF INHIBITORS OF APOPTOSIS PROTEINS” (Hepagene Therapeutics (HK) Limited, priority 2019, published 2022).

Legend:
XIAP-BIR3 = target: T1, XIAP-BIR3 (Homo sapiens, UniProt P98170); assay: XIAP-BIR3 fluorescence polarization binding assay; conditions: FP, probe AbuRPFK-5FAM (SM5F) 5 nM, XIAP-BIR3 40 nM, 60 min at 25° C.
T1 construct: XIAP-BIR3; purchased Reaction Biology APT-11-374
In short: (§1)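 Fluorescence polarization competition using 5-carboxyfluorescein-labelled peptide probe AbuRPFK-5FAM; protein and compound preincubated 15 min, probe added, then 60 min at 25° C.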

cIAP1-BIR3 = target: T2, cIAP1-BIR3 (Homo sapiens, UniProt Q13490); assay: cIAP1-BIR3 fluorescence polarization binding assay; conditions: FP, probe AbuRPFK-5FAM (SM5F) 5 nM, cIAP1-BIR3 15 nM, 60 min at 25° C.
T2 construct: cIAP1-BIR3; purchased Reaction Biology APT-11-370
T2 sequence (Q13490 253-363 limits assumed): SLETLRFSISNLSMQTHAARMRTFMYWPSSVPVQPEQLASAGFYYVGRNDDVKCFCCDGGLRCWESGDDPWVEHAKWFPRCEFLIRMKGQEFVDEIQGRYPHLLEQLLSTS
In short: as §1

cIAP2-BIR3 = target: T3, cIAP2-BIR3 (Homo sapiens, UniProt Q13489); assay: cIAP2-BIR3 fluorescence polarization binding assay; conditions: FP, probe AbuRPFK-5FAM (SM5F) 5 nM, cIAP2-BIR3 80 nM, 60 min at 25° C.
T3 construct: cIAP2-BIR3; purchased Reaction Biology APT-11-372
T3 sequence (Q13489 238-349 limits assumed): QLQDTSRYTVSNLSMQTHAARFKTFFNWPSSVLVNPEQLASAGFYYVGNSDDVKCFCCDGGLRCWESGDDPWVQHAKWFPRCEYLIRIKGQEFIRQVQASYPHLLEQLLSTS
In short: as §1

T1 sequence (P98170 241-356 limits assumed): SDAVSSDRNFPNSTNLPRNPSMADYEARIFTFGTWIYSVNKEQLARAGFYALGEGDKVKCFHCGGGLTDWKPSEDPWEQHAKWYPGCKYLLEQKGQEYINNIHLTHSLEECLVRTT

| SMILES | IC50 (XIAP-BIR3) | IC50 (cIAP1-BIR3) | IC50 (cIAP2-BIR3) |
| --- | --- | --- | --- |
| CN[C@@H](C)C(=O)N[C@H](C(=O)N1C[C@@H](O)C[C@H]1C(=O)N[C@@H]1CCCc2c(-c3cccc4c3CCC[C@H]4NC(=O)[C@@H]3C[C@H](O)CN3C(=O)[C@@H](NC(=O)[C@H](C)NC)C3CCCCC3)cccc21)C1CCCCC1 [Compound V-L, (2S,4S)-1-[(2S)-2-cyclohexyl-2-[(2S)-2-(methylamino)propanamido]acetyl]-N-[(5R,5′R)-5′-[(2S,4S)-1-[(2S)-2-cyclohexyl-2-[(2S)-2-(methylamino)propanamido]acetyl]-4-hydroxypyrrolidine-2-amido]-5H,5′H,6H,6′H,7H,7′H,8H,8′H-[1,1′-binaphthalen]-5-yl]-4-hydroxypyrrolidine-2-carboxamide] | 10 to 100 nM | 1 to 10 nM | 10 to 100 nM |
| CN[C@@H](C)C(=O)N[C@H](C(=O)N1CCC[C@H]1C(=O)N[C@@H]1CCCc2c1cccc2N1CC2CN(c3cccc4c3CCC[C@H]4NC(=O)[C@@H]3CCCN3C(=O)[C@@H](NC(=O)[C@H](C)NC)C3CCCCC3)CC2C1)C1CCCCC1 (stereo partly drawn) [Compound VIII, (2S)-1-[(2S)-2-cyclohexyl-2-[(2S)-2-(methylamino)propanamido]acetyl]-N-[(1R)-5-[5-[(5R)-5-[(2S)-1-[(2S)-2-cyclohexyl-2-[(2S)-2-(methylamino)propanamido]acetyl]pyrrolidine-2-amido]-5,6,7,8-tetrahydronaphthalen-1-yl]-hexahydropyrrolo[3,4-c]pyrrol-2-yl]-1,2,3,4-tetrahydmnaphthalen-1-yl]pyrrolidine-2-carboxamide] | 10 to 100 nM | 1 to 10 nM | 1 to 10 nM |
| CN[C@@H](C)C(=O)N[C@H](C(=O)N1CCC[C@H]1C(=O)N[C@@H]1CCCc2c(OC/C=C/COc3cccc4c3CCC[C@H]4NC(=O)[C@@H]3CCCN3C(=O)[C@@H](NC(=O)[C@H](C)NC)C3CCCCC3)cccc21)C1CCCCC1 [Compound IV-A, (2S)-1-[(2S)-2-Cyclohexyl-2-[(2S)-2-(methylamino)propanamido]acetyl]-N-[(1R)-5-[[(2E)-4-[[(5R)-5-[(2S)-1-[(2S)-2-cyclohexyl-2-[(2S)-2-(methylamino)propanamido]acetyl]pyrrolidine-2-amido]-5,6,7,8-tetrahydronaphthalen-1-yl]oxy]but-2-en-1-yl]oxy]-1,2,3,4-tetrahydronaphthalen-1-yl]pyrrolidine-2-carboxamide] | 10 to 100 nM | 1 to 10 nM | 10 to 100 nM |
| CC[C@H](NC(=O)[C@H](C)NC)C(=O)N1CCC[C@H]1C(=O)N[C@@H]1CCCc2c(NC(=O)c3cccc4c3CCC[C@H]4NC(=O)[C@@H]3CCCN3C(=O)[C@H](CC)NC(=O)[C@H](C)NC)cccc21 [Compound VII-C, (2S)-1-[(2S)-2-[(2S)-2-(methylamino)propanamido]butanoyl]-N-[(1R)-5-[[(5R)-5-[(2S)-1-[(2S)-2-[(2S)-2-(methylamino)propanamido]butanoyl]pyrrolidine-2-amido]-5,6,7,8-tetrahydmnaphthalen-1-yl]carbamoyl]-1,2,3,4-tetrahydmnaphthalen-1-yl]pyrrolidine-2-carboxamide] | 10 to 100 nM | 1 to 10 nM | 10 to 100 nM |
| CN[C@@H](C)C(=O)N[C@H](C(=O)N1CCC[C@H]1C(=O)N[C@@H]1CCCc2ccc(N3CCN(c4ccc5c(c4)[C@H](NC(=O)[C@@H]4CCCN4C(=O)[C@@H](NC(=O)[C@H](C)NC)C4CCCCC4)CCC5)CC3)cc21)C1CCCCC1 [VIII-A, (2S)-1-[(2S)-2-cyclohexyl-2-[(2S)-2-(methylamino)propanamido]acetyl]-N-[(1R)-7-[4-[(8R)-8-[(2S)-1-[(2S)-2-cyclohexyl-2-[(2S)-2-(methylamino)propanamido]acetyl]pyrrolidine-2-amido]-5,6,7,8-tetrahydronaphthalen-2-yl]piperazin-1-yl]-1,2,3,4-tetrahydronaphthalen-1-yl]pyrrolidine-2-carboxamide] | > 1000 nM | 10 to 100 nM | 100 to 1000 nM |
| CN[C@@H](C)C(=O)N[C@H](C(=O)N1CCC[C@H]1C(=O)N[C@@H]1CCCc2cc(-c3ccc(-c4ccc5c(c4)CCC[C@H]5NC(=O)[C@@H]4CCCN4C(=O)[C@@H](NC(=O)[C@H](C)NC)C4CCCCC4)cc3)ccc21)C1CCCCC1 [Compound III-L, (2S)-1-[(2S)-2-cyclohexyl-2-[(2S)-2-(methylamino)propanamido]acetyl]-N-[(1R)-6-[4-[(5R)-5-[(2S)-1-[(2S)-2-cyclohexyl-2-[(2S)-2-(methylamino)propanamido]acetyl]pyrolidine-2-amido]-5,6,7,8-tetrahydronaphthalen-2-yl]phenyl]-1,2,3,4-tetrahydronaphthalen-1-yl]pyrrolidine-2-carboxamide] | 100 to 1000 nM | 10 to 100 nM | 100 to 1000 nM |
| CC[C@H](NC(=O)[C@H](C)NC)C(=O)N1CCC[C@H]1C(=O)N[C@@H]1CCCc2c(-c3cccc(-c4cccc5c4CCC[C@H]5NC(=O)[C@@H]4CCCN4C(=O)[C@H](CC)NC(=O)[C@H](C)NC)c3)cccc21 [III-D, (2S)-1-[(2S)-2-[(2S)-2-(methylamino)propanamido]butanoyl]-N-[(1R)-5-[3-[(5R)-5-[(2S)-1-[(2S)-2-[(2S)-2-(methylamino)propanamido]butanoyl]pyrrolidine-2-amido]-5,6,7,8-tetrahydronaphthalen-1-yl]phenyl]-1,2,3,4-tetrahydronaphthalen-1-yl]pyrrolidine-2-carboxamide] | 10 to 100 nM | 1 to 10 nM | 10 to 100 nM |
| CN[C@@H](C)C(=O)N[C@H](C(=O)N1CCC[C@H]1C(=O)N[C@@H]1CCCc2c(NC(=O)c3cccc4c3CCC[C@H]4NC(=O)[C@@H]3CCCN3C(=O)[C@@H](NC(=O)[C@H](C)NC)C3CCOCC3)cccc21)C1CCOCC1 [Compound VII-B, (2S)-1[(2S)-2-[(2S)-2-(methylamino)propanamido]-2-(oxan-4-yl)acetyl]-N-[(1R)-5-[[(5R)-5-[(2S)-1[(2S)-2-[(2S)-2-(methylamino)propanamido]-2-(oxan-4-yl)acetyl]pyrrolidine-2-amido]-5,6,7,8-tetrahydronaphthalen-1-yl]carbamoyl]-1,2,3,4-tetrahydronaphthalen-1-yl]pyrrolidine-2-carboxamide] | 10 to 100 nM | 1 to 10 nM | 10 to 100 nM |
| CC[C@H](NC(=O)[C@H](C)NC)C(=O)N1CCC[C@H]1C(=O)N[C@@H]1CCc2c(-c3cccc4c3CC[C@H]4NC(=O)[C@@H]3CCCN3C(=O)[C@H](CC)NC(=O)[C@H](C)NC)cccc21 [Compound V-O, (2S,2'S)—N,N′-((1R,1′R)-2,2′,3,3′-tetrahydro-1H,1′H-[4,4′-biindene]-1,1′-diyl)bis(1-((S)-2-((S)-2-(methylamino)propanamido)butanoyl)pyrrolidine-2-carboxamide)] | 10 to 100 nM | 1 to 10 nM | 10 to 100 nM |
| CN[C@@H](C)C(=O)N[C@H](C(=O)N1CCC[C@H]1C(=O)N[C@@H]1CCCc2c(Oc3cccc4c3CCC[C@H]4NC(=O)[C@@H]3CCCN3C(=O)[C@@H](NC(=O)[C@H](C)NC)C3CCOCC3)cccc21)C1CCOCC1 [Compound X-C, (S)-1-((S)-2-((S)-2-(methylamino)propanamido)-2-(tetrahydro-2H-pyran-4-yl)acetyl)-N—((R)-5-(((R)-5-((S)-1-((S)-2-((S)-2-(methylamino)propanamido)-2-(tetrahydro-2H-pyran-4-yl)acetyl)pyrrolidine-2-carboxamido)-5,6,7,8-tetrahydronaphthalen-1-yl)oxy)-1,2,3,4-tetrahydronaphthalen-1-yl)pyrrolidine-2-carboxamide] | 10 to 100 nM | 1 to 10 nM | 10 to 100 nM |
